Biological target: CsTMR (triphenylmethane reductase) (Citrobacter sp. MY-5, UniProt Q2TNI4)
Assay: decolorization in bienzyme fed-batch system; OD616 assay
Assay type: biochemical
Details: glucose 200 mM, NAD 1 mM, malachite green 3 µM, BzGDH for NADH regeneration, 25 °C; OD616 assay: 200 µM NADH, 20 µM malachite green, pH 7.0

Chain of CsTMR (triphenylmethane reductase) (Q2TNI4 entry or part of it): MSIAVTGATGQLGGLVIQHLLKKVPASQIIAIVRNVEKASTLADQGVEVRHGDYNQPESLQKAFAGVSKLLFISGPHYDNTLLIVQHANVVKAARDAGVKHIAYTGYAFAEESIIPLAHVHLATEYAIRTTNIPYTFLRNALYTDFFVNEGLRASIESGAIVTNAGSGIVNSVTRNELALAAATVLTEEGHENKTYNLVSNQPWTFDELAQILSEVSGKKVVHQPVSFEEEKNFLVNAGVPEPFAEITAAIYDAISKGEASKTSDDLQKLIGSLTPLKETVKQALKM

For CN(C)c1ccc(C(=C2C=CC(=[N+](C)C)C=C2)c2ccccc2)cc1 [malachite green], the “decolorization in bienzyme fed-batch system; OD616 assay” value was “The activity of CsTMR was assayed by monitoring the OD616 of malachite green”.
